{"source": "patent US4695647A", "about": "“Aromatic derivatives of 13-azaprostanoic acid” (Drug Science Foundation, priority 1984, dated 1987)", "key": {"human platelets": {"system": "human platelets", "experiment": "Inhibition of U46619-induced human platelet aggregation", "type": "cell-based", "details": "for IC50: Homo sapiens, Platelet, 1 min", "method": "Platelet rich plasma was prepared from four healthy, normal volunteers using standard techniques.\nPlatelets were aggregated with U46619 (0.5 to 1.0 μM) to produce an\naverage % aggregation at one minute of 61.3 ± 3.1. The ID50 value\nwere calculated based on the inhibition of U46619 induced aggregation one\nminute after its addition.\nPlatelets were aggregated with U46619 (0.09 to 0.65 μM) to produce an\naverage % aggregation at one minute of 47 ± 3. The ID50 values\nThe potency of PTA-OH and PTA-OM for antagonism of U46619 induced human platelet aggregation was determined as described above."}, "endotoxic shock": {"system": "endotoxic shock", "experiment": "Protection against endotoxic shock (Salmonella endotoxin)", "type": "in vivo, young male Long-Evans rats", "from_the_text": "Based on the protective biological response observed and the absence of change in plasma thromboxane levels, it is concluded that trans-13 APT is a thromboxane receptor antagonist."}, "platelet aggregation [1]": {"system": "platelet aggregation", "details": "13-APA itself, stated as background for comparison; cited from earlier work"}, "Solubility": {"experiment": "Solubility", "type": "physicochemical"}, "platelet aggregation [2]": {"system": "platelet aggregation", "experiment": "U46619 and arachidonic acid-induced platelet aggregation", "type": "cell-based, human", "method": "Compound A was prepared in a manner analogous to 13 APA itself, i.e., by borohydride reduction of the Schiff base obtained from the reaction of tyramine and ethyl-2-oxo-cyclopentane-heptanoate. This reaction produces about equal amounts of the cis and trans ethyl esters, which were separated on preparative silica gel TLC and subsequently hydrolyzed to the free acids by refluxing in aqueous NaOH."}, "canine saphenous veins": {"system": "canine saphenous veins", "experiment": "Antagonism of vascular smooth muscle contraction in canine saphenous veins", "type": "cell-based"}, "[3]": {"details": "Table I, U46619 0.5 to 1.0 μM, average % aggregation at one minute 61.3 ± 3.1, indomethacin 10 μM, one minute preincubation, platelet rich plasma, read-out: ID50 (the source's name)"}, "[4]": {"details": "Table 2, U46619 0.09 to 0.65 μM, average % aggregation at one minute 47 ± 3, indomethacin 10 μM, one minute preincubation, read-out: ID50 (the source's name)"}, "[5]": {"details": "30 mg/kg i.p., vs vehicle pretreated animals"}, "[6]": {"details": "pinane analogs, determined as described above, read-out: ID50 (antagonism of U46619 induced human platelet aggregation)"}}, "note": "“Also recorded” adds a separate entry of the source. Where two headings read alike, the source gives them in different places."}
{"smiles": "CCCCCCCN[C@H]1CCC[C@H]1CCCCCCC(=O)O", "note": "(relative stereo) [13-cis-azaprostanoic acid, reference compound]", "values": [{"measurement": "IC50", "setting": "human platelets; [3]", "value": "14.8 ± 2.2", "unit": "µM"}]}
{"smiles": "O=C(O)CCCCCC[C@H]1CCC[C@H]1NCC(O)c1ccc(O)c(I)c1", "note": "(relative stereo) [13-cis-iodo APO]", "values": [{"measurement": "IC50", "setting": "human platelets; [4]", "value": "9.8 ± 1.3", "unit": "µM"}]}
{"smiles": "CCCCCCCN[C@@H]1CCC[C@H]1CCCCCCC(=O)O", "note": "(relative stereo) [13-trans-azaprostanoic acid, reference compound]", "values": [{"measurement": "IC50", "setting": "human platelets; [3]", "value": "13.6 ± 1.9", "unit": "µM"}]}
{"smiles": "O=C(O)CCCCCC[C@@H]1CCC[C@@H]1NCCc1ccc(O)cc1", "note": "(relative stereo) [Compound 13-cis-APT, 7-(2-p-hydroxphenethylamino-cyclopentyl)-heptanoic acid]", "values": [{"measurement": "IC50", "setting": "human platelets; [3]", "value": "17.6 ± 4.4", "unit": "µM"}]}
{"smiles": "O=C(O)CCCCCC[C@@H]1CCC[C@H]1NCCc1ccc(O)cc1", "note": "(relative stereo) [Compound 13-trans-APT, 7-(2-p-hydroxphenethylamino-cyclopentyl)-heptanoic acid]", "values": [{"measurement": "plasma thromboxane B2 levels", "setting": "endotoxic shock; 30 mg/kg i.p., 30 minutes and four hours after endotoxin, vs vehicle", "value": "elevated to the same degree"}, {"measurement": "6-keto-PGF1α levels", "setting": "endotoxic shock; [5]", "value": "significantly lower"}, {"measurement": "endotoxic shock as measured by hypoglycemia, thrombocytopenia and tissue infarct effects", "setting": "endotoxic shock; [5]", "value": "less subject to endotoxic shock"}, {"measurement": "protection against endotoxic shock", "setting": "endotoxic shock; 30 mg/kg, intraperitoneal pretreatment, endotoxin intravenously", "value": "protected against endotoxic shock"}, {"measurement": "protection against pathophysiologic sequelae of S. enteritidis endotoxemia", "setting": "endotoxic shock; 30 mg/kg, rats", "value": "effective in protecting rats"}, {"measurement": "IC50", "setting": "human platelets; [3]", "value": "9.9 ± 1.7", "unit": "µM"}]}
{"smiles": "CCCCCCCN[C@H]1CCC[C@@H]1CCCCCCC(=O)O", "note": "[Compound 13-APA, 13-Azaprostanoic acid]", "values": [{"measurement": "relative potency of isomers", "setting": "platelet aggregation [1]", "value": "much more potent as the trans form"}]}
{"smiles": "O=C(O)CCCCCC[C@@H]1CCC[C@@H]1NCC(O)c1ccc(O)cc1", "note": "(stereo partly drawn) [Compound 13-cis-APO, 7-(2-p-hydroxyphenylethanolamino-cyclopentyl)-heptanoic acid]", "values": [{"measurement": "IC50", "setting": "human platelets; [4]", "value": "6.4 ± 0.7", "unit": "µM"}, {"measurement": "IC50", "setting": "human platelets; [3]", "value": "16 ± 3.2", "unit": "µM"}]}
{"smiles": "O=C(O)CCCCCC[C@@H]1CCC[C@H]1NCC(O)c1ccc(O)cc1", "note": "(stereo partly drawn) [Compound 13-trans-APO, 7-(2-p-hydroxyphenylethanolamino-cyclopentyl)-heptanoic acid]", "values": [{"measurement": "IC50", "setting": "human platelets; [3]", "value": "8.3 ± 1.4", "unit": "µM"}, {"measurement": "solubility in ethanol", "setting": "Solubility", "value": "practically insoluble"}]}
{"smiles": "O=C(O)CCCCCCC1CCCC1NCCc1ccc(O)cc1", "note": "(stereo not drawn) [Compound A, 7-(2-p-hydroxyphenethylamino-cyclopenthyl)-heptanoic acid]", "values": [{"measurement": "activity and relative potency of isomers in platelet aggregation", "setting": "platelet aggregation [2]", "value": "the two isomers were active, with the trans more potent than the cis; also recorded: significantly more potent than the parent 13-APA"}]}
{"smiles": "CC1(C)C2CC(NCC(O)Cc3ccc(O)cc3)C(C/C=C\\CCCC(=O)O)C1C2", "note": "(stereo not drawn) [PTA-OH, 13-aza-16-(p-hydroxyphenyl) pinane TxA2]", "values": [{"measurement": "relative potency as inhibitor of human platelet aggregation", "setting": "human platelets", "value": "more potent than 13-aza-16-(p-methoxyphenyl) pinane TxA2 (PTA-OM)"}, {"measurement": "IC50", "setting": "human platelets; [6]", "value": "0.52 ± 0.07", "unit": "µM"}]}
{"smiles": "COc1ccc(CC(O)CNC2CC3CC(C2C/C=C\\CCCC(=O)O)C3(C)C)cc1", "note": "(stereo not drawn) [PTA-OM, 13-aza-16-(p-methoxyphenyl) pinane TxA2]", "values": [{"measurement": "relative potency as antagonist of vascular smooth muscle contraction", "setting": "canine saphenous veins", "value": "more potent than PTA-OH"}, {"measurement": "IC50", "setting": "human platelets; [6]", "value": "1.56 ± 0.35", "unit": "µM"}]}
{"smiles": "CC1(C)C2CC(NCC(O)Cc3ccc(O)c(I)c3)C(C/C=C\\CCCC(=O)O)C1C2", "note": "(stereo not drawn) [^127 I-PTA-OH]", "values": [{"measurement": "IC50", "setting": "human platelets; [6]", "value": "0.38 ± 0.05", "unit": "µM"}]}
